Test results from paper PMC10723784, “Investigation of the cytotoxicity induced by cannabinoids on human ovarian carcinoma cells” (Pharmacology Research & Perspectives, 2023).

Legend:
[1] = system: caspase 3/7 activity in A2780 cells; experiment: Caspase 3/7 assay, A2780 cells; type: cell-based, human; conditions: A2780, 24 h contact time, dose-dependent, significant above 10 μM
Method: Sensolyte homogenous caspase 3/7 assay kit was used to determine the caspase activity in ovarian cancer cells when treated with CBG. Cells were seeded in 96‐well plate at 6 × 10^3 cells per well and were incubated for 24 h. CBG was added in concentrations of 10, 20, 30, and 50 μM and incubated for a further 24 h. After the incubation time elapsed, the media was removed and replaced with 150 μL/well of fresh complete media. Caspase 3/7 solution was prepared by diluting the caspase substrate 1:100 with DTT‐containing assay buffer. 50 μL/well caspase substrate was added to the plates, and the cells were incubated for 30 min. Ac‐DEVD‐AMC serves as the fluorogenic indicator for assaying caspase‐3/7 activity. Ac‐DEVD‐AMC generates the AMC fluorophore in the presence of caspase 3/7, which produces bright blue fluorescence. The fluorescence was measured by the FLOUstar OPTIMA plate reader with the excitation at 354 nm and emission at 442 nm.
The level of caspase 3/7 was also determined using Apotox‐Glo Triple assay. Cells were seeded and drugs were added as described above in Section 2.6.1. After 24 h incubation, caspase 3/7 reagent was prepared by mixing caspase buffer and substrate and 100 μL of reagent was added to each well for 30 min incubation at room temperature. […] The luminescence was measured by the FLOUstar OPTIMA plate reader.

[2] = MTT cytotoxicity assay, non-cancer ARPE19 cells; conditions: human, ARPE19 non-cancer retinal pigment cells
Method: Human ovarian carcinoma cells, A2780 (sensitive to chemotherapeutics), A2780/CP70 (resistant to chemotherapeutics), and non‐cancerous cells including PNT2 (normal prostate epithelial cell line), and/or ARPE19 (human retinal pigment cell line) were maintained according to the ATCC and ECACC guidelines.
In vitro chemosensitivity assays were performed using the MTT assay as previously described.[32], [33] Briefly, at 70% confluency, cells were seeded in 96‐well plates at a density of 2000 cells/well. […] After the allocated contact time had elapsed, the media was removed and 0.5% (w/v) MTT solution diluted in complete media (200 μL) was added to each well. Following a 4 h incubation, the supernatants were removed, and the formazan crystals were dissolved in dimethylsulfoxide (150 μL). The absorbance was read at 540 nm on a Tecan Infinite 50 plate UV reader.

A2780 cells [3] = experiment: Mitochondrial membrane potential assay (JC-1), A2780 cells; type: cell-based, human; conditions: A2780, 10-50 μM, 24 h, dose-dependent
Method: (§1) The mitochondrial membrane potential assay was performed to detect the loss in mitochondrial potential (de‐polarization), which is a vital step in apoptosis.[36] Cells were seeded in T25 flasks at 4 × 10^5 cells per flask and were incubated for 48 h or until they reached confluency. After the incubation time elapsed, drugs at concentrations of 10, 30, and 50 μM or vehicle were added to the flasks and further incubated for 24 h. After 24 h elapsed, the cells were harvested and suspended in PBS. Cell viability and number were determined by the cell viability assay using via1 cassettes on NC‐3000 system. The samples were diluted in PBS to 1 × 10^6 cells/mL and 2.5 μg/mL of JC‐1 dye was added to each sample. JC‐1 is a […] dye, which stains as fluorescent red as it aggregates in the mitochondrial matrix. In the absence of mitochondrial membrane potential, JC‐1 localizes in the cytosol in its fluorescent green form. Following the addition of JC‐1, the cells were incubated for 10–30 min at 37°C. […] 12.5 μL of samples were loaded on to an A‐8 slide and were analyzed using the NC‐3000 image cytometry. The degree of apoptosis (in proportional to the loss in mitochondrial membrane potential) was measured using a scatter plot of JC‐1 red fluorescence versus JC‐1 green fluorescence.

A2780/CP70 cells [4] = experiment: Mitochondrial membrane potential assay (JC-1), A2780/CP70 cells; type: cell-based, human; conditions: A2780/CP70, 10-50 μM, 24 h, dose-dependent
Method: as §1

A2780/CP70 cells [5] = experiment: Cell cycle analysis (DAPI, NC-3000), A2780/CP70 cells; type: cell-based, human; conditions: 48 h
Method: (§2) Cells were seeded in T25 flasks at 4 × 10^5 cells per flask and were incubated for 48 h or until they reached confluency. […] After the incubation time elapsed cells were suspended in PBS with a density closer to 1 × 10^6cells/mL. The cells were washed twice with 1× PBS before the addition of 250 μL of lysis buffer (solution 10) supplemented with 10 μg/mL DAPI (solution 12) was added to the samples and incubated for 5 min at 37°C. After incubation, 250 μL of stabilization buffer (solution 11) was added. 12.5 μL of samples were loaded on to an A‐8 slide and were analyzed using the NC‐3000 system.

A2780 cells [6] = experiment: Cell cycle analysis (DAPI, NC-3000), A2780 cells; type: cell-based, human; conditions: 48 h
Method: as §2

SMILES: CCCCCc1cc(O)c(C/C=C(\C)CCC=C(C)C)c(O)c1 [CBG, cannabigerol]
- Caspase 3/7 activity [1]: increased the caspase 3/7 activity
- IC50 at 24 h [2]: 32.1 ± 1.8 µM
- IC50 at 48 h [2]: 21.2 ± 2.7 µM
- IC50 at 72 h [2]: 19.2 ± 1 µM
- IC50 at 96 h [2]: 17.4 ± 2.4 µM
- Percentage of apoptotic cells (loss of mitochondrial membrane potential) (A2780 cells [3]): induced an increase in the percentage of apoptotic cells
- Percentage of apoptotic cells (loss of mitochondrial membrane potential) (A2780/CP70 cells [4]): induced an increase in the percentage of apoptotic cells
- Cells in G0/G1 phase (A2780/CP70 cells [5]; A2780/CP70, 10 μM): 86.4 ± 0.5%
- Cells in G0/G1 phase (A2780/CP70 cells [5]; A2780/CP70, 30 μM): 90.6 ± 0.4%
- Cells in S phase (A2780/CP70 cells [5]; A2780/CP70, 30 μM): 5.6 ± 0.6%
- Cells in G2/M phase (A2780/CP70 cells [5]; A2780/CP70, 50 μM): 16.4 ± 1.9%
- Cells in G0/G1 phase (A2780 cells [6]; A2780, 10 μM): 79.1 ± 0.4%
- Cells in G0/G1 phase (A2780 cells [6]; A2780, 30 μM): 80.2 ± 1.3%
- Cells in G0/G1 phase (A2780 cells [6]; A2780, 50 μM): 67.6 ± 1.1%
- Cells in subG1 phase (A2780 cells [6]; A2780, 50 μM): 8.7 ± 0.6%
